Results from ChEMBL document CHEMBL5143760, “Inhibitors of Transforming Growth Factor Beta Receptor 1 (TGFβr1) May Enhance the Efficacy of Several Monoclonal Antibodies as Cancer Therapy” (2022).
Calls of active or inactive are those of the source. The calls are words filed in the database; no cut-off is given here.

How the values were obtained:
4T1 [1] = assay: Antitumor activity against mouse 4T1 cells xenografted in Balb/cj mouse assessed as inhibition of tumor growth at 30 mg/kg, po twice daily for 21 days relative to control; format: functional; conditions: 4T1, 504 h, time 21 day, read-out: TGI
4T1 [2] = assay: Antitumor activity against mouse 4T1 cells xenografted in Balb/cj mouse assessed as inhibition of tumor growth at 30 mg/kg, po twice daily for 21 days in presence of 4-1BB monoclonal antibody relative to control; format: functional; conditions: 4T1, 504 h, time 21 day, read-out: TGI
MC-38 [3] = assay: Antitumor activity against mouse MC38 cells xenografted in C57BL/6 mouse assessed as increase in animal survival at 30 mg/kg, po twice daily co-administered with anti-PD1-antibody at 5 mg/kg, ip twice weekly for 2 weeks; format: functional, organism-based
CT26 [4] = assay: Antitumor activity against mouse CT26 cells xenografted in Balb/c mouse assessed as time of events at 30 mg/kg, po twice daily for 28 days; format: functional; conditions: time 28 day
CT26 [5] = assay: Antitumor activity against mouse CT26 cells xenografted in Balb/c mouse assessed as tumor growth delay at 30 mg/kg, po twice daily for 28 days; format: functional; conditions: time 28 day
4T1 [6] = assay: Antitumor activity against mouse 4T1 cells xenografted in Balb/cj mouse assessed as inhibition of tumor growth at 30 mg/kg, po twice daily for 21 days in presence of OXO40 monoclonal antibody relative to control; format: functional; conditions: 4T1, 504 h, time 21 day, read-out: TGI
MC-38 [7] = assay: Antitumor activity against mouse MC38 cells xenografted in C57BL/6 mouse assessed as inhibition of tumor growth at 30 mg/kg, po twice daily co-administered with anti-PD1-antibody at 5 mg/kg, ip twice weekly for 2 weeks; format: functional, organism-based
CT26 [8] = assay: Antitumor activity against mouse CT26 cells xenografted in Balb/c mouse assessed as time of events at 30 mg/kg, po twice daily for 28 days in presence of ant-CTLA4 antibody; format: functional; conditions: time 28 day
CT26 [9] = assay: Antitumor activity against mouse CT26 cells xenografted in Balb/c mouse assessed as tumor growth delay at 30 mg/kg, po twice daily for 28 days in presence of ant-CTLA4 antibody; format: functional; conditions: time 28 day

How did the inhibition in vivo at 30 mg/kg (4T1 [1]) turn out when `CC(C)c1cnc(-c2cc(Cl)ccc2F)cc1Nc1ccncc1C(=O)NC(CO)CO` [PF-06952229] was run?
The inhibition in vivo at 30 mg/kg was 18%.

And the inhibition in vivo at 30 mg/kg (4T1 [2])?
Its inhibition in vivo at 30 mg/kg is 41%.

And the Activity (MC-38 [3])?
Its Activity is “Active”.

What about the Time (CT26 [4]) of the same molecule?
Its Time is 33.8 days.

What about the Activity (CT26 [5]) of the same molecule?
The Activity was 18%.

And the inhibition in vivo at 30 mg/kg (4T1 [6])?
The inhibition in vivo at 30 mg/kg was 29.5%.

What about the inhibition (MC-38 [7]) of the same molecule?
Its inhibition is “Active”.

And the Time (CT26 [8])?
Its Time is 59 days.

And the Activity (CT26 [9])?
Its Activity is 106%.
